In ChEMBL document CHEMBL1909046, “DrugMatrix in vitro pharmacology data”:

Experiments:
[1] = DRUGMATRIX: beta-Lactamase enzyme inhibition (substrate: Nitrocefin); parameters: species or system Bacillus cereus; conditions: Not Active = under 50% inhibition at 10 µM
Melanocortin receptor 4 = Melanocortin receptor 4 (Homo sapiens, UniProt P32245); assay type: cell membranes, HEK293, Membrane; conditions: hek293; note: in other assays of this panel Not Active means under 50% inhibition at 10 µM
[2] = DRUGMATRIX: GABAA, Muscimol, Central radioligand binding (ligand: [3H] Muscimol); assay type: cell membranes, Rattus norvegicus, Wistar, Brain, Membrane; conditions: Not Active = under 50% inhibition at 10 µM
[3] = DRUGMATRIX: Glutamate, Kainate radioligand binding (ligand: [3H] Kainic acid); assay type: cell membranes, Rattus norvegicus, Wistar, Brain, Membrane; conditions: Not Active = under 50% inhibition at 10 µM
[4] = biological target: T1, Muscarinic acetylcholine receptor M5 (Homo sapiens, UniProt P08912); assay type: cell membranes, CHO-K1, Membrane; conditions: cho-k1; note: in other assays of this panel Not Active means under 50% inhibition at 10 µM
T1 sequence (P08912 whole entry): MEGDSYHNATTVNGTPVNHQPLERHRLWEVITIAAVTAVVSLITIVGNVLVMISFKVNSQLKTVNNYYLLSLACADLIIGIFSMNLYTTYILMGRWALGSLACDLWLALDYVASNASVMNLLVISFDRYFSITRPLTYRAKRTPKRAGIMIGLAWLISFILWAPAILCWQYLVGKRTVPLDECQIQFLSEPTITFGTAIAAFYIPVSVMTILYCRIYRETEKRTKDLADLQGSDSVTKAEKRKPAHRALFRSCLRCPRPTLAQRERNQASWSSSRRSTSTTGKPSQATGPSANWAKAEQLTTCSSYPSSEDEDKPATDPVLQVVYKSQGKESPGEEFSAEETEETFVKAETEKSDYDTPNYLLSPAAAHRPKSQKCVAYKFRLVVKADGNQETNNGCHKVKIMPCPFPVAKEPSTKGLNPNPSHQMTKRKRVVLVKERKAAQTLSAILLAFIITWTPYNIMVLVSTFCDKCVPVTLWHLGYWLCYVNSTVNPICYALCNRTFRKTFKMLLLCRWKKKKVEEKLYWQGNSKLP

Melanocortin receptor 3 = Melanocortin receptor 3 (Homo sapiens, UniProt P41968); assay type: cell membranes, HEK293, Membrane; conditions: hek293; note: in other assays of this panel Not Active means under 50% inhibition at 10 µM
Melanocortin receptor 3, sequence (P41968 whole entry): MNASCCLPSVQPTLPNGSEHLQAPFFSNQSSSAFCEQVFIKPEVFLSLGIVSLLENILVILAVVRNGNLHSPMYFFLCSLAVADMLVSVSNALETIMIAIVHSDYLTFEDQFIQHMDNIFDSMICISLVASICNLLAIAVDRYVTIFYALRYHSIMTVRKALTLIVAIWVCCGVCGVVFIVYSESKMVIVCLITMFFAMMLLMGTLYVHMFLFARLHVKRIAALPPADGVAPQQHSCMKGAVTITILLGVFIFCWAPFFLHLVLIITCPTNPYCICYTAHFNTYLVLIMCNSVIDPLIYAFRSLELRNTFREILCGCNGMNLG

Melanocortin receptor 4, sequence (P32245 whole entry): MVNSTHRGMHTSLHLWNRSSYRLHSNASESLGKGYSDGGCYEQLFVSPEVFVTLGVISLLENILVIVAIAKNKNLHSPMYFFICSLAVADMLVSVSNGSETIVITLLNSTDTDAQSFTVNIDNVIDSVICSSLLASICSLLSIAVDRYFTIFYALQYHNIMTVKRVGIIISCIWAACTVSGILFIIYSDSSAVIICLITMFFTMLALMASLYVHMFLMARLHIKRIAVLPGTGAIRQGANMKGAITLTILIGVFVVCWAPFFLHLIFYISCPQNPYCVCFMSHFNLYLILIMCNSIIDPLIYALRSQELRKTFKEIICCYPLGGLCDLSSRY

CC[C@@H](CO)NC(=O)[C@@H]1C=C2c3cccc4[nH]cc(c34)C[C@H]2N(C)C1 [METHYLERGONOVINE]
Not Active: IC50 [1] | Ki [1] | IC50 (Melanocortin receptor 4) | IC50 [2] | Ki [2] | IC50 [3] | Ki [3] | IC50 [4] | IC50 (Melanocortin receptor 3)

c1ccc([C@H]2CN3CCSC3=N2)cc1 [LEVAMISOLE]
Not Active: IC50 [1] | Ki [1] | IC50 (Melanocortin receptor 4) | IC50 [2] | Ki [2] | IC50 [3] | Ki [3] | IC50 [4] | IC50 (Melanocortin receptor 3)

OCCN(CCO)c1nc(N2CCCCC2)c2nc(N(CCO)CCO)nc(N3CCCCC3)c2n1 [DIPYRIDAMOLE]
Not Active: IC50 [1] | Ki [1] | IC50 (Melanocortin receptor 4) | IC50 [2] | Ki [2] | IC50 [3] | Ki [3] | IC50 [4] | IC50 (Melanocortin receptor 3)

CC(C)(C)NC(=O)[C@@H]1C[C@@H]2CCCC[C@@H]2CN1C[C@@H](O)[C@H](Cc1ccccc1)NC(=O)[C@H](CC(N)=O)NC(=O)c1ccc2ccccc2n1
Not Active: IC50 [1] | Ki [1] | IC50 (Melanocortin receptor 4) | IC50 [2] | Ki [2] | IC50 [3] | Ki [3] | IC50 [4] | IC50 (Melanocortin receptor 3)

Nc1nc2nc[nH]c2c(=S)[nH]1 [THIOGUANINE]
Not Active: IC50 [1] | Ki [1] | IC50 (Melanocortin receptor 4) | IC50 [2] | Ki [2] | IC50 [3] | Ki [3] | IC50 [4] | IC50 (Melanocortin receptor 3)

SODIUM NITROPRUSSIDE
Not Active: IC50 [1] | Ki [1] | IC50 (Melanocortin receptor 4) | Ki (Melanocortin receptor 4) | IC50 [2] | Ki [2] | IC50 [3] | Ki [3] | IC50 [4] | Ki [4] | IC50 (Melanocortin receptor 3) | Ki (Melanocortin receptor 3)

Cn1ccnc1S [METHIMAZOLE]
Not Active: IC50 [1] | Ki [1] | IC50 (Melanocortin receptor 4) | IC50 [2] | Ki [2] | IC50 [3] | Ki [3] | IC50 [4] | IC50 (Melanocortin receptor 3)

Cc1oncc1C(=O)Nc1ccc(C(F)(F)F)cc1 [LEFLUNOMIDE]
Not Active: IC50 [1] | Ki [1] | IC50 (Melanocortin receptor 4) | IC50 [2] | Ki [2] | IC50 [3] | Ki [3] | IC50 [4] | IC50 (Melanocortin receptor 3)

COc1c(C)c2c(c(O)c1C/C=C(\C)CCC(=O)O)C(=O)OC2 [MYCOPHENOLIC ACID]
Not Active: IC50 [1] | Ki [1] | IC50 (Melanocortin receptor 4) | IC50 [2] | Ki [2] | IC50 [3] | Ki [3] | IC50 [4] | IC50 (Melanocortin receptor 3)

CCCOc1ccccc1-c1nc2nn[nH]c2c(=O)[nH]1 [ZAPRINAST]
Not Active: IC50 [1] | Ki [1] | IC50 (Melanocortin receptor 4) | IC50 [2] | Ki [2] | IC50 [3] | Ki [3] | IC50 [4] | IC50 (Melanocortin receptor 3)

C=CCC1(C(C)CCC)C(=O)NC(=O)NC1=O (stereo not given) [SECOBARBITAL]
Not Active: IC50 [1] | Ki [1] | IC50 (Melanocortin receptor 4) | IC50 [2] | Ki [2] | IC50 [3] | Ki [3] | IC50 [4] | IC50 (Melanocortin receptor 3)

CC(=O)[C@@]1(O)CC[C@H]2[C@@H]3C[C@H](C)C4=CC(=O)CC[C@]4(C)[C@H]3CC[C@@]21C
Not Active: IC50 [1] | Ki [1] | IC50 (Melanocortin receptor 4) | IC50 [2] | Ki [2] | IC50 [3] | Ki [3] | IC50 [4] | IC50 (Melanocortin receptor 3)

N#CC(C#N)=Cc1ccc(O)c(O)c1 [TYRPHOSTIN 23]
Not Active: IC50 [1] | Ki [1] | IC50 (Melanocortin receptor 4) | IC50 [2] | Ki [2] | IC50 [3] | Ki [3] | IC50 [4] | IC50 (Melanocortin receptor 3)
